Converted amounts (≈) assume the structure as drawn. Read-outs that look alike come from different tables or passages of the source.
How the values were obtained:
Type in all cases: cell-based
[1] = test system: S. aureus MP-549 msr(a) USA 300; experiment: MIC against S. aureus MP-549 msr(a) USA 300; conditions: Staphylococcus aureus, USA300, S. aureus MP-549 msr(a) USA 300
[2] = test system: S. aureus MMX 3035 cErmA; experiment: MIC against S. aureus MMX 3035 cErmA; conditions: Staphylococcus aureus, MMX3035CERMA
[3] = test system: S. aureus BAA-1556 (USA 300); experiment: microbe, parasite or virus in culture; conditions: Staphylococcus aureus
[4] = test system: S. aureus UNT96, NRS710, MP-618 (USA100, Erythro > 8); experiment: microbe, parasite or virus in culture; conditions: Staphylococcus aureus
[5] = test system: S. aureus UNT-146, MP-620, TP 506 (ermA); experiment: microbe, parasite or virus in culture; conditions: Staphylococcus aureus
[6] = test system: S. aureus UNT-120, MP-619, NR522 (USA 600, GISA); experiment: microbe, parasite or virus in culture; conditions: Staphylococcus aureus, USA600
[7] = test system: S. pneumoniae ATCC 49619; experiment: MIC against S. pneumoniae ATCC 49619; conditions: Streptococcus pneumoniae, ATCC49619; S. pneumoniae ATCC 49619; read-out: MIC
[8] = test system: S. pneumoniae MMX 3031 cMefA; experiment: MIC against S. pneumoniae MMX 3031 cMefA; conditions: Streptococcus pneumoniae, MMX3031CMEFA
[9] = test system: S. pneumoniae UNT-038, MP-626, TP 160 (mefA); experiment: MIC against S. pneumoniae UNT-038, MP-626, TP 160 (mefA); conditions: Streptococcus pneumoniae
[10] = test system: S. pneumoniae UNT-039, MP-627, TP1517 (mefA); experiment: MIC against S. pneumoniae UNT-039, MP-627, TP1517 (mefA); conditions: Streptococcus pneumoniae
[11] = test system: S. pneumoniae TP 1579 (ermB + tet(M, O)); experiment: MIC against S. pneumoniae TP 1579 (ermB + tet(M, O)); conditions: Streptococcus pneumoniae
[12] = test system: S. pneumoniae TP 1537 (ermB + mefA); experiment: MIC against S. pneumoniae TP 1537 (ermB + mefA); conditions: Streptococcus pneumoniae
[13] = test system: S. pyogenes ATCC 19615; experiment: MIC against S. pyogenes ATCC 19615; conditions: Streptococcus pyogenes, ATCC19615; S. pyogenes ATCC 19615; read-out: MIC
[14] = test system: S. pyogenes MMX 946 Macrolide-Resistant; experiment: MIC against S. pyogenes MMX 946 Macrolide-Resistant; conditions: Streptococcus pyogenes
[15] = test system: S. pyogenes UNT-014, MP-625 MacRes; experiment: MIC against S. pyogenes UNT-014, MP-625 MacRes; conditions: Streptococcus pyogenes
[16] = test system: E. faecalis ATCC 29212; experiment: MIC against E. faecalis ATCC 29212; conditions: Enterococcus faecalis
[17] = test system: E. faecalis MMX 847 Macrolide-Resistant; experiment: MIC against E. faecalis MMX 847 Macrolide-Resistant; conditions: Enterococcus faecalis
[18] = test system: E. faecalis UNT-047 VRE; experiment: microbe, parasite or virus in culture; conditions: Enterococcus faecalis
[19] = test system: C. difficile BAA 1805; experiment: MIC against C. difficile BAA 1805; conditions: Clostridioides difficile, BAA1805; C. difficile BAA 1805; read-out: MIC
[20] = test system: B. fragilis ATCC 25285; experiment: MIC against B. fragilis ATCC 25285; conditions: Bacteroides fragilis, ATCC25285; B. fragilis ATCC 25285; read-out: MIC
[21] = test system: K. pneumoniae IHMA 658692; KPC-2; experiment: microbe, parasite or virus in culture; conditions: Klebsiella pneumoniae
[22] = test system: K. pneumoniae UNT TEM-10; experiment: microbe, parasite or virus in culture; conditions: Klebsiella pneumoniae, UNTTEM10
[23] = test system: E. coli ATCC 15922; experiment: MIC against E. coli ATCC 15922; conditions: Escherichia coli, ATCC15922
[24] = test system: E. coli MMX TolC parent strain; experiment: MIC against E. coli MMX TolC parent strain; conditions: Escherichia coli
[25] = test system: E. coli MMX 0121 ΔTolC; experiment: MIC against E. coli MMX 0121 ΔTolC; conditions: Escherichia coli
[26] = test system: E. coli GUEST131 (NDM-1); experiment: microbe, parasite or virus in culture; conditions: Escherichia coli
[27] = test system: P. aeruginosa ATCC 27853; experiment: MIC against P. aeruginosa ATCC 27853; conditions: Pseudomonas aeruginosa, ATCC27853
[28] = test system: P. aeruginosa MMX Mex parent strain; experiment: MIC against P. aeruginosa MMX Mex parent strain; conditions: Pseudomonas aeruginosa
[29] = test system: H. influenzae ATCC 49247; experiment: MIC against H. influenzae ATCC 49247; conditions: Haemophilus influenzae, ATCC49247; H. influenzae ATCC 49247; read-out: MIC
[30] = test system: S. aureus BAA 977 iErmA; experiment: MIC against S. aureus BAA 977 iErmA; conditions: Staphylococcus aureus, BAA977
[31] = test system: S. aureus ATCC 29213; experiment: MIC against S. aureus ATCC 29213; conditions: Staphylococcus aureus, ATCC29213, S. aureus ATCC 29213; read-out: MIC
[32] = test system: K. pneumoniae ATCC 10031; experiment: MIC against K. pneumoniae ATCC 10031; conditions: Klebsiella pneumoniae, ATCC10031; K. pneumoniae ATCC 10031; read-out: MIC

Structure (SMILES) | MIC [3] | MIC [4] | MIC [5] | MIC [6] | MIC [7] | MIC [8] | MIC [9] | MIC [10] | MIC [11] | MIC [13] | MIC [15] | MIC [18] | MIC [19] | MIC [20] | MIC [21] | MIC [22] | MIC [23] | MIC [25] | MIC [26] | MIC [29] | also measured
CSC1O[C@H]([C@H](NC(=O)[C@H]2NC[C@@H]3CC=CCO[C@H]32)[C@H](C)Cl)C(O)[C@@H](O)[C@H]1O (some centres unmarked) [FSA-24035] | > 32 µg/mL | > 32 µg/mL | > 32 µg/mL | > 32 µg/mL | ≤ 0.06 µg/mL | ≤ 0.06 µg/mL | ≤ 0.0313 µg/mL | ≤ 0.0313 µg/mL | ≤ 0.0313 µg/mL | ≤ 0.0313 µg/mL | ≤ 0.0313 µg/mL | > 32 µg/mL | 2 µg/mL (≈ 4.58 µM) | 8 µg/mL (≈ 18.3 µM) | > 32 µg/mL | > 32 µg/mL | > 64 µg/mL | 4 µg/mL (≈ 9.15 µM) | > 32 µg/mL | 1 µg/mL (≈ 2.29 µM) | MIC [1]: 0.5 µg/mL (≈ 1.14 µM); MIC [2]: > 64 µg/mL; MIC ([12]; S. pneumoniae TP 1537 (ermB + mefA), read-out: MIC): 32 µg/mL; MIC [14]: 16 µg/mL (≈ 36.6 µM); MIC ([16]; ATCC29212): 16 µg/mL (≈ 36.6 µM); MIC [17]: > 64 µg/mL; MIC [24]: > 64 µg/mL; MIC [27]: > 64 µg/mL; MIC [28]: > 64 µg/mL
CSC1O[C@H]([C@H](NC(=O)[C@H]2NC[C@@H]3CC(F)(F)CCO[C@H]32)[C@H](C)Cl)C(O)[C@@H](O)[C@H]1O (some centres unmarked) [FSA-24036] | > 32 µg/mL | > 32 µg/mL | > 32 µg/mL | > 32 µg/mL | ≤ 0.06 µg/mL | ≤ 0.06 µg/mL | ≤ 0.0313 µg/mL | ≤ 0.0313 µg/mL | ≤ 0.0313 µg/mL | ≤ 0.0313 µg/mL | ≤ 0.0313 µg/mL | > 32 µg/mL | 2 µg/mL (≈ 4.21 µM) | 4 µg/mL (≈ 8.42 µM) | > 32 µg/mL | > 32 µg/mL |  | 8 µg/mL (≈ 16.8 µM) | > 32 µg/mL | 4 µg/mL (≈ 8.42 µM) | MIC [30]: 0.5 µg/mL (≈ 1.05 µM); MIC ([2]; S. aureus MMX 3035 cErmA, read-out: MIC): > 64 µg/mL; MIC [12]: > 32 µg/mL; MIC ([14]; S. pyogenes MMX 946 Macrolide-Resistant (MacRes), read-out: MIC): 4 µg/mL (≈ 8.42 µM); MIC ([16]; ATCC29212, read-out: MIC): 4 µg/mL (≈ 8.42 µM); MIC ([17]; E. faecalis MMX 847 Macrolide-Resistant (MacRes), read-out: MIC): > 64 µg/mL; MIC ([23]; E. coli ATCC 15922, read-out: MIC): > 64 µg/mL; MIC ([24]; E. coli MMX TolC parent strain, read-out: MIC): > 64 µg/mL; MIC ([27]; P. aeruginosa ATCC 27853, read-out: MIC): > 64 µg/mL; MIC ([28]; P. aeruginosa MMX Mex parent strain, read-out: MIC): > 64 µg/mL
CSC1O[C@H]([C@H](NC(=O)[C@@H]2[C@@H]3OCCCC[C@H]3CN2C)[C@H](C)Cl)C(O)[C@@H](O)[C@H]1O (some centres unmarked) [FSA-24040] | > 32 µg/mL | > 32 µg/mL | > 32 µg/mL | > 32 µg/mL | ≤ 0.0313 µg/mL |  | ≤ 0.0313 µg/mL | ≤ 0.0313 µg/mL | ≤ 0.0313 µg/mL | ≤ 0.0313 µg/mL | ≤ 0.0313 µg/mL | > 32 µg/mL |  |  | > 32 µg/mL |  | > 32 µg/mL |  | > 32 µg/mL | 8 µg/mL (≈ 17.7 µM) | MIC [31]: ≤ 0.0313 µg/mL; MIC [12]: > 32 µg/mL; MIC [32]: 8 µg/mL (≈ 17.7 µM); MIC [27]: > 32 µg/mL

Source: patent US20220073554A1, “LINCOSAMIDE ANTIBIOTICS AND USES THEREOF” (President and Fellows of Harvard College, priority 2017, published 2022)
